Format in all cases: functional, cell-based
Assay [1] deals with MIA PaCa-2. The assay is described as follows: Cytotoxicity against human MIA PaCa-2 cells harboring KRAS G12C mutant assessed as cell growth inhibition incubated for 24 hrs by MTT assay. Conditions: MIA PaCa-2, 24 h.
Assay [2] concerns PANC-1. The assay is described as follows: Cytotoxicity against human PANC-1 cells harboring KRAS G12D mutant assessed as cell growth inhibition incubated for 24 hrs by MTT assay. As to conditions: PANC-1, 24 h. (Tetrazolium assays rely on reduction of a dye to a coloured formazan, in cell work by metabolically active cells.)
The nature of assay [3]: Cytotoxicity against human PANC-1 cells […] assessed as cell growth inhibition incubated for 24 hrs by MTT assay. As to conditions: PANC-1, 24 h.
Assay [4] relates to NCM460. The assay is described as follows: Cytotoxicity against human NCM460 cells harboring wild-type KRAS assessed as cell growth inhibition incubated for 24 hrs by MTT assay. Conditions: NCM460, 24 h.

By IC50 is commonly meant the concentration at which inhibition is half-maximal. For `CCN(CC)c1ccc2cc(/C=C/c3cc(N4CCN(C)CC4)c4cc(F)c(NCc5cn(CCCN6CCCCC6)nn5)cc4[n+]3C)c(=O)oc2c1`, the IC50 in assay [1], in assay [2], in assay [3] and in assay [4] was more than 40 µM in each case.
For `CCN(CC)c1ccc2cc(/C=C/c3ccc4cc(F)c(NCCN(C(C)C)C(C)C)cc4[n+]3C)c(=O)oc2c1`, the IC50 in assay [1] was 1.3 µM; in assay [2] it was 3.4 µM; in assay [3], 13 µM; in assay [4], 15 µM.
Taken in the same sequence, the figures for `CCN(CC)c1ccc2cc(/C=C/c3cc(N4CCN(C)CC4)c4cc(F)c(N5CCN(C)CC5)cc4[n+]3C)c(=O)oc2c1` were 16 µM, 26.4 µM, more than 40 µM and more than 40 µM.
For the molecule `CCN(CC)c1ccc2cc(/C=C/c3ccc4cc(F)c(N5CCN(Cc6cn(CCCN(C)C)nn6)CC5)cc4[n+]3C)c(=O)oc2c1`, the IC50 in assay [1], in assay [2], in assay [3] and in assay [4] was more than 40 µM each time.
Turning to `CCN(CC)c1ccc2cc(/C=C/c3cc(NCCCN4CCOCC4)c4cc(F)c(NCCCN5CCOCC5)cc4[n+]3C)c(=O)oc2c1`, the IC50 in assay [1] was 4.6 µM; in assay [2], 29 µM; in assay [3] it was more than 40 µM; in assay [4], more than 40 µM.
Turning to `CCN(CC)c1ccc2cc(/C=C/c3ccc4cc(F)c(NCc5ccccc5C(F)(F)F)cc4[n+]3C)c(=O)oc2c1`, the IC50 in assay [1] is less than 1.3 µM; in assay [2], 7 µM; in assay [3], 3 µM; in assay [4], 12.2 µM.
Taken in the same sequence, the figures for `CCN(CC)c1ccc2cc(/C=C/c3cc(N4CCN(C)CC4)c4cc(F)c(NCc5cn(CCc6cccs6)nn5)cc4[n+]3C)c(=O)oc2c1` were 9 µM, 19.2 µM, more than 40 µM and more than 40 µM.
Turning to `CCN(CC)c1ccc2cc(/C=C/c3cc(N4CCN(C)CC4)c4cc(F)c(NCc5cn([C@@H]6O[C@H](CO)[C@@H](O)[C@H](O)[C@H]6O)nn5)cc4[n+]3C)c(=O)oc2c1`, the IC50 in assay [1], in assay [2], in assay [3] and in assay [4] was more than 40 µM in each case.
For `CCN(CC)c1ccc2cc(/C=C/c3cc(NCCCn4ccnc4)c4cc(F)c(NCCCn5ccnc5)cc4[n+]3C)c(=O)oc2c1`, the half-maximal inhibitory concentration (IC50) was 33.2 µM in assay [1], more than 40 µM in assay [2], more than 40 µM in assay [3] and more than 40 µM in assay [4].
Consider `CCN(CC)c1ccc2cc(/C=C/c3cc(NCCCN4CCCC4)c4cc(F)c(NCCCN5CCCC5)cc4[n+]3C)c(=O)oc2c1`, for which the IC50 in assay [1], in assay [2], in assay [3] and in assay [4] was more than 40 µM throughout.
For `CCCCN(CCCC)CCCn1cc(CN2CCN(c3cc4c(ccc(/C=C/c5cc6ccc(N(CC)CC)cc6oc5=O)[n+]4C)cc3F)CC2)nn1`, the 50% inhibitory concentration (IC50) was 7 µM in assay [1], 26 µM in assay [2], more than 40 µM in assay [3] and more than 40 µM in assay [4].
Consider `CCN(CC)c1ccc(Nc2cc3c(ccc(/C=C/c4cc5ccc(N(CC)CC)cc5oc4=O)[n+]3C)cc2F)cc1`, for which the IC50 was less than 13 µM in assay [1], less than 1.3 µM in assay [2], less than 1.3 µM in assay [3] and less than 1.3 µM in assay [4].
Turning to `CCN(CC)c1ccc2cc(/C=C/c3ccc4cc(F)c(N5CCCCC5)cc4[n+]3C)c(=O)oc2c1`, the IC50 in assay [1] is 11.4 µM; in assay [2], 20.6 µM; in assay [3], more than 40 µM; in assay [4] it was more than 40 µM.
In the case of `CCN(CC)c1ccc2cc(/C=C/c3ccc4cc(F)c(N5CCN(Cc6cn(CCc7cccs7)nn6)CC5)cc4[n+]3C)c(=O)oc2c1`, the IC50 was 6.8 µM in assay [1], 23.8 µM in assay [2], more than 40 µM in assay [3] and more than 40 µM in assay [4].
On to `CCN(CC)CCCn1cc(CN2CCN(c3cc4c(ccc(/C=C/c5cc6ccc(N(CC)CC)cc6oc5=O)[n+]4C)cc3F)CC2)nn1`, for which the IC50 in assay [1], in assay [2], in assay [3] and in assay [4] was more than 40 µM each time.
Regarding `CCN(CC)c1ccc2cc(/C=C/c3ccc4cc(F)c(N5CCN(Cc6cn(CCCN7CCCC7)nn6)CC5)cc4[n+]3C)c(=O)oc2c1`, the IC50 in assay [1] is more than 40 µM; in assay [2] it was 19.8 µM; in assay [3], 13 µM; in assay [4] it was more than 40 µM.
As for `CCN(CC)c1ccc2cc(/C=C/c3ccc4cc(F)c(N5CCOCC5)cc4[n+]3C)c(=O)oc2c1`, the IC50 in assay [1] was 29.6 µM; in assay [2] it was 13.2 µM; in assay [3], more than 40 µM; in assay [4], more than 40 µM.
In the case of `CCN(CC)c1ccc2cc(/C=C/c3ccc4cc(F)c(NCCCn5ccnc5)cc4[n+]3C)c(=O)oc2c1`, the IC50 in assay [1] is 13.4 µM; in assay [2], more than 40 µM; in assay [3], more than 40 µM; in assay [4], more than 40 µM.
For `CCN(CC)c1ccc2cc(/C=C/c3ccc4cc(F)c(NCC5CCOCC5)cc4[n+]3C)c(=O)oc2c1`, the concentration for half-maximal inhibition (IC50) in assay [1] was 10.8 µM; in assay [2] it was 32.4 µM; in assay [3], 11.3 µM; in assay [4], more than 40 µM.
On to `CCN(CC)c1ccc2cc(/C=C/c3ccc4cc(F)c(N5CCN(C(=O)C(C)C)CC5)cc4[n+]3C)c(=O)oc2c1`, for which the IC50 in assay [1] is 3.4 µM; in assay [2], 39.6 µM; in assay [3] it was more than 40 µM; in assay [4] it was more than 40 µM.
In the case of `CCN(CC)c1ccc2cc(/C=C/c3ccc4cc(F)c(NCCO)cc4[n+]3C)c(=O)oc2c1`, the IC50 in assay [1] is 7.2 µM; in assay [2], 38.2 µM; in assay [3], more than 40 µM; in assay [4], more than 40 µM.
For `CCN(CC)c1ccc2cc(/C=C/c3cc(N4CCN(C)CC4)c4cc(F)c(NCc5cn(CCC(=O)OC)nn5)cc4[n+]3C)c(=O)oc2c1`, the IC50 in assay [1], in assay [2], in assay [3] and in assay [4] was more than 40 µM in each case.
Take `CCN(CC)c1ccc2cc(/C=C/c3ccc4cc(F)c(NCCCOC(C)C)cc4[n+]3C)c(=O)oc2c1`: the IC50 in assay [1] was 1.5 µM; in assay [2], 2.9 µM; in assay [3], 6 µM; in assay [4], 23.2 µM.
`CCN(CC)c1ccc2cc(/C=C/c3cc(NCCN4CCCC4)c4cc(F)c(NCCN5CCCC5)cc4[n+]3C)c(=O)oc2c1`: the concentration for half-maximal inhibition (IC50) was 17 µM in assay [1], more than 40 µM in assay [2], more than 40 µM in assay [3] and more than 40 µM in assay [4].
In the case of `CCN(CC)c1ccc2cc(/C=C/c3ccc4cc(F)c(NCc5ccccc5C)cc4[n+]3C)c(=O)oc2c1`, the IC50 in assay [1] is less than 1.3 µM; in assay [2], 5.9 µM; in assay [3] it was 4.6 µM; in assay [4] it was 18.7 µM.
Taken in the same sequence, the figures for `CCN(CC)c1ccc2cc(/C=C/c3ccc4cc(F)c(NCCOCCO)cc4[n+]3C)c(=O)oc2c1` were 9.8 µM, more than 40 µM, more than 40 µM and more than 40 µM.
`CCN(CC)c1ccc2cc(/C=C/c3ccc4cc(F)c(NCCc5cccs5)cc4[n+]3C)c(=O)oc2c1`: the half-maximal inhibitory concentration (IC50) in assay [1] was less than 1.3 µM; in assay [2] it was less than 1.3 µM; in assay [3], less than 1.3 µM; in assay [4], 4.4 µM.
Regarding `CCN(CC)c1ccc2cc(/C=C/c3cc(N4CCN(C)CC4)c4cc(F)c(NCc5cn(CCCN(C)C)nn5)cc4[n+]3C)c(=O)oc2c1`, the half-maximal inhibitory concentration (IC50) in assay [1] is more than 40 µM; in assay [2] it was 35.2 µM; in assay [3], more than 40 µM; in assay [4] it was more than 40 µM.
Regarding `CCN(CC)c1ccc2cc(/C=C/c3ccc4cc(F)c(N5CCN(Cc6cn([C@@H]7O[C@H](CO)[C@@H](O)[C@H](O)[C@H]7O)nn6)CC5)cc4[n+]3C)c(=O)oc2c1`, the half-inhibitory concentration (IC50) in assay [1], in assay [2], in assay [3] and in assay [4] was more than 40 µM each time.
On to `CCN(CC)c1ccc2cc(/C=C/c3cc(N4CCN(C)CC4)c4cc(F)c(NCc5cn(CCCN6CCOCC6)nn5)cc4[n+]3C)c(=O)oc2c1`, for which the IC50 in assay [1], in assay [2], in assay [3] and in assay [4] was more than 40 µM in each case.
On to `CCN(CC)c1ccc2cc(/C=C/c3ccc4cc(F)c(N5CCN(C(C)=O)CC5)cc4[n+]3C)c(=O)oc2c1`, for which the concentration for half-maximal inhibition (IC50) in assay [1] is 5.6 µM; in assay [2] it was 32.6 µM; in assay [3], more than 40 µM; in assay [4] it was more than 40 µM.
Turning to `CCN(CC)CCCn1cc(CNc2cc3c(cc2F)c(N2CCN(C)CC2)cc(/C=C/c2cc4ccc(N(CC)CC)cc4oc2=O)[n+]3C)nn1`, the IC50 in assay [1], in assay [2], in assay [3] and in assay [4] was more than 40 µM throughout.
For the molecule `CCN1CCN(c2ccc(Nc3cc4c(ccc(/C=C/c5cc6ccc(N(CC)CC)cc6oc5=O)[n+]4C)cc3F)cc2)CC1`, the IC50 in assay [1] is 8.8 µM; in assay [2], 15.2 µM; in assay [3] it was more than 40 µM; in assay [4] it was more than 40 µM.
As to `CCN(CC)c1ccc2cc(/C=C/c3cc(N4CCN(C)CC4)c4cc(F)c(NCc5cn(CCC(=O)O)nn5)cc4[n+]3C)c(=O)oc2c1`, the IC50 in assay [1], in assay [2], in assay [3] and in assay [4] was more than 40 µM in each case.
On to `CCN(CC)c1ccc2cc(/C=C/c3ccc4cc(F)c(Nc5ccc(N6CCN(C)CC6)nc5)cc4[n+]3C)c(=O)oc2c1`, for which the concentration for half-maximal inhibition (IC50) in assay [1] was 9 µM; in assay [2] it was more than 40 µM; in assay [3] it was more than 40 µM; in assay [4], 10.4 µM.
Consider `CCN(CC)c1ccc2cc(/C=C/c3ccc4cc(F)c(Nc5ccc6nc(C)[nH]c6c5)cc4[n+]3C)c(=O)oc2c1`, for which the half-inhibitory concentration (IC50) in assay [1] was 12 µM; in assay [2] it was 13 µM; in assay [3], more than 40 µM; in assay [4], 14.8 µM.

Values taken from ChEMBL document CHEMBL5537197, “Discovery of Novel Coumarin-quinolinium Derivatives as Pan-KRAS Translation Inhibitors by Targeting 5'-UTR RNA G-Quadruplexes” (J Med Chem, 2024).
